Measurements published in patent US6498145B1, “Use of purified SDG as a hypotensive (vasodilator) agent” (University of Saskatchewan Technologies Incorporated, priority 2000, dated 2002).

Legend:
Type in all cases: in vivo, rat
[1] = test system: angiotensin converting enzyme (ACE); assay: Angiotensin I-induced rise in blood pressure before and after SDG; conditions: SDG 10 mg/kg intravenously
Method: Further experiments were conducted to determine if the SDG-induced fall in the blood pressure is mediated through inhibition of angiotensin converting enzyme (ACE). Angiotensin I is converted to angiotensin II which is vasoconstrictor and raises blood pressure. If SDG lowers blood pressure by inhibiting ACE, then SDG would reduce/prevent the angiotensin I-induced rise in the blood pressure. Experiments were conducted in six normotensive Sprague-Dawley rats. […] However, the effects of angiotensin on arterial pressure of untreated rats remained unaltered. SDG (10 mg/kg) produced a marked fall in the mean arterial pressure.

[2] = test system: anesthetized spontaneous hypertensive rats (SHR); assay: Blood pressure of anesthetized spontaneous hypertensive rats, SDG intravenously
Method: (§1) The effects of SDG on the arterial pressure of anesthetized spontaneous hypertensive rats (SHR) were investigated to determine (a) if it is effective in lowering blood pressure to the same extent as in normotensive Sprague-Dawley rats; (b) if it is effective when given by intraperitoneal route; (c) if the effect is dose-dependent.
(i) Effects of SDG in the doses of 1 mg, 3 mg and 15 mg/kg given intravenously were investigated on the blood pressures of anesthetized spontaneous hypertensive rats (SHR). The maximum fall in the blood pressure occurred between 15 to 30 minutes of SDG administration after which the blood pressure tended to recover. However, the recovery was short lived. The percent decreases in blood pressures at 30 minutes after SDG were 19, 25 and 31 respectively with 1 mg, 3 mg and 15 mg/kg of SDG. At the end of 4 hours of SDG treatment, the percent decreases were 34, 43 and 36 respectively with 1 mg, 3 mg and 15 mg dose. The fall in the blood pressure initially (at 15 minutes) was maximum with high dose of SDG.

[3] = test system: anesthetized normotensive rats; assay: Hypotensive effect of SDG after premedication with blockers/inhibitors in anesthetized normotensive rats
Method: FIG. 5 is a graph showing changes in the mean arterial blood pressure (B.P.) with SDG (20 mg/kg, intravenously) in the absence or presence of methylene blue (MB) (0.5 mg/kg); methylene blue was given 15 minutes prior to administration of SDG and results are expressed as mean±S.E. *p<0.05, comparison of values at various times with respect to “0” time.
FIG. 9 is a graph showing effects of SDG in the absence or presence of pyrilamine on the mean arterial blood pressure (B.P.) in anesthetized normotensive rats. Pyrilamine was given 15 minutes before administration of SDG. The results are expressed as mean±S.E. *p<0.05, comparison of values at various times with respect to “0” time.
Heart rate was not affected by methylene blue (FIG. 8).

[4] = test system: anesthetized normotensive rats; assay: Blood pressure and heart rate of anesthetized normotensive rats, SDG intravenously; conditions: for maximum fall in mean B.P.: 15 minutes after administration
Method: The effects of SDG in the doses of 10 mg, 15 mg, 20 mg and 30 mg/kg given intravenously were investigated on the blood pressure (B.P.) and heart rate of anesthetized normotensive rats. The number of rats used were 8, 3, 9, and 3 respectively for the doses of SDG (10 mg, 15 mg, 20 mg and 30 mg/kg body wt.). The maximum fall in mean B.P. were approximately 38%, 29%, 46% and 57% with 10 mg, 15 mg, 20 mg and 30 mg/kg dose of SDG respectively at 15 minutes after administration of SDG. After 15 minutes the blood pressure tended to recover but the recovery was not complete. The mean blood pressure at the end of three hours after SDG administration were approximately 25% lower than control values. The changes in the systolic and diastolic pressure were similar to the mean blood pressure with various doses of SDG. […] One would expect a very long duration of hypotensive effect when SDG is given orally.

[5] = test system: anesthetized spontaneous hypertensive rats; assay: Blood pressure of anesthetized spontaneous hypertensive rats, SDG orally; conditions: SHR, 100 mg/kg orally
Method: (iii) Effects of SDG (100 mg/kg body wt.) given orally were investigated on the blood pressure of anesthetized spontaneous hypertensive rats for four hours. The blood pressures began falling at 15 minutes of SDG administration and maximum fall occurred after three hours. The decreases were of similar magnitude for systolic, diastolic and mean arterial pressures. The systolic, diastolic and mean arterial pressures respectively were 243 mmHg, 176 mmHg and 198 mmHg before administration of SDG. SDG reduced the blood pressure by approximately 25%.

[6] = test system: anesthetized spontaneous hypertensive rats (SHR); assay: Blood pressure of anesthetized spontaneous hypertensive rats, SDG intraperitoneally; conditions: for maximum fall in the blood pressure: 30 minutes; for percent decrease in blood pressures: end of four hours
Method: as §1
(ii) Effects of SDG in the doses of 5 mg, 10 mg, 50 mg and 200 mg/kg given intraperitoneally were investigated on blood pressure of anesthetized SHR for four hours. The maximum fall in the blood pressure were approximately 7, 37, 50 and 48% respectively with 5 mg, 10 mg, 50 mg and 200 mg of SDG at 30 minutes. At the end of four hours of SDG administration the percent decreases in blood pressures were 31, 42, 39 and 37 respectively with these four doses of SDG.

angiotensin II receptor = assay: Angiotensin II response on arterial pressure before and after SDG; conditions: SDG 10 mg/kg intravenously
Method: To determine if the SDG-induced fall in the blood pressure is mediated through the blockade of angiotensin II receptor, experiments were carried out in normotensive Sprague-Dawley rats. Effects of angiotensin II (0.2 μg/kg, I.V.) given before and after 15 minutes, 30 minutes and 60 minutes of SDG (10 mg/kg) administered intravenously were investigated on the arterial pressure of six anesthetized Sprague-Dawley rats. […] The response of angiotensin II on the mean arterial pressure in untreated rats remained unaltered.

[7] = normotensive Sprague-Dawley rats

SMILES: COc1cc(C[C@@H](CO[C@@H]2O[C@H](CO)[C@@H](O)[C@H](O)[C@H]2O)[C@H](CO[C@@H]2O[C@H](CO)[C@@H](O)[C@H](O)[C@H]2O)Cc2ccc(O)c(OC)c2)ccc1O [SDG, secoisolariciresinol diglucoside]
- mean arterial pressure [1, 7]: marked fall
- response of angiotensin I on the mean arterial pressure ([1]; angiotensin I 0.2 μg/kg intravenously, Sprague-Dawley rats, 60 minutes): marked reduction
- percent decrease in blood pressures ([2]; 1 mg/kg intravenously, 30 minutes after SDG): 19%
- percent decrease in blood pressures ([2]; 1 mg/kg intravenously, end of 4 hours): 34%
- percent decrease in blood pressures ([2]; 3 mg/kg intravenously, 30 minutes after SDG): 25%
- percent decrease in blood pressures ([2]; 3 mg/kg intravenously, end of 4 hours): 43%
- percent decrease in blood pressures ([2]; 15 mg/kg intravenously, 30 minutes after SDG): 31%
- percent decrease in blood pressures ([2]; 15 mg/kg intravenously, end of 4 hours): 36%
- time of maximum fall in the blood pressure ([2]; 1-15 mg/kg intravenously): 15 to 30 min
- hypotensive effect of SDG after premedication with NG-monomethyl-L-arginine ([3]; NG-monomethyl-L-arginine (inhibitor of nitric oxide synthase)): not prevented
- hypotensive effect of SDG in presence of methylene blue ([3]; SDG 20 mg/kg intravenously, methylene blue 0.5 mg/kg 15 minutes prior): completely prevented
- heart rate in presence of pyrilamine ([3]; SDG with pyrilamine): practically unchanged
- hypotensive effect of SDG after premedication with atropine ([3]; atropine (acetylcholine receptor blocker)): not prevented
- hypotensive effect of SDG after premedication with indomethacin ([3]; indomethacin (inhibitor of cyclooxygenase)): not prevented
- hypotensive effect of SDG in presence of pyrilamine ([3]; pyrilamine (histamine receptor blocker) 15 minutes before SDG): partly prevented
- maximum fall in mean B.P. ([4]; 10 mg/kg intravenously, normotensive rats): approximately 38%
- maximum fall in mean B.P. ([4]; 15 mg/kg intravenously, normotensive rats): ~29%
- maximum fall in mean B.P. ([4]; 20 mg/kg intravenously, normotensive rats): ~46%
- maximum fall in mean B.P. ([4]; 30 mg/kg intravenously, normotensive rats): ~57%
- heart rate ([4]; any dose (10-30 mg/kg intravenously), normotensive rats): not significantly altered
- mean blood pressure lower than control values ([4]; end of three hours after SDG administration, 10-30 mg/kg intravenously): approximately 25%
- time at which blood pressures began falling [5]: 15 min
- reduction of blood pressure ([5]; observed for four hours, systolic, diastolic and mean similar): approximately 25%
- maximum fall in the blood pressure ([6]; 5 mg/kg intraperitoneally): approximately 7%
- percent decrease in blood pressures ([6]; 5 mg/kg intraperitoneally): 31%
- maximum fall in the blood pressure ([6]; 10 mg/kg intraperitoneally): ~37%
- percent decrease in blood pressures ([6]; 10 mg/kg intraperitoneally): 42%
- maximum fall in the blood pressure ([6]; 50 mg/kg intraperitoneally): ~50%
- percent decrease in blood pressures ([6]; 50 mg/kg intraperitoneally): 39%
- maximum fall in the blood pressure ([6]; 200 mg/kg intraperitoneally): ~48%
- percent decrease in blood pressures ([6]; 200 mg/kg intraperitoneally): 37%
- mean arterial pressure (angiotensin II receptor; [7]): reduced the mean arterial pressure
- angiotensin II response on arterial pressure (angiotensin II receptor; angiotensin II 0.2 μg/kg I.V., 15, 30, 60 minutes): moderately reduced
